In ChEMBL document CHEMBL1641570, “New hydroxystilbenoid derivatives endowed with neuroprotective activity and devoid of interference with estrogen and aryl hydrocarbon receptor-mediated transcription” (Bioorg Med Chem, 2011):

Legend:
Ishikawa [1] = assay: Cytotoxicity against human Ishikawa cells by LDH release assay; format: cell-based
[2] = Antagonist activity at estrogen receptor in human Ishikawa cells assessed as inhibition of estradiol-induced alkaline phosphatase expression at 1 uM after 72 hrs relative to ICI182780; format: cell-based
[3] = (§1) Agonist activity at estrogen receptor in human Ishikawa cells assessed as increase of estradiol-induced alkaline phosphatase expression at 1 uM after 72 hrs relative to estradiol; format: cell-based; conditions: ishikawa, 72 h, 1 µM
Estrogen receptor beta [4] = target: T1, Estrogen receptor beta (Homo sapiens, UniProt Q92731); assay: Antagonist activity at human ERbeta receptor expressed in human HEK293 cells co-expressing ERE assessed as inhibition of estradiol-induced of luciferase gene expression at 1 uM after 18 hrs relative to ICI182780; format: cell-based; conditions: hek293, 18 h
Estrogen receptor beta [5] = target: T1, Estrogen receptor beta; assay: Agonist activity at human ERbeta receptor expressed in human HEK293 cells co-expressing ERE assessed as increase of estradiol-induced luciferase gene expression at 1 uM after 18 hrs relative to estradiol; format: cell-based; conditions: for Activity: hek293, 18 h, 1 µM; for activity at 18 h, 1 µM: read-out: Activity
Estrogen receptor [6] = target: T2, Estrogen receptor (Homo sapiens, UniProt P03372); assay: Antagonist activity at human ERalpha receptor expressed in human MCF7:D5L cells co-expressing ERE assessed as inhibition of estradiol-induced of luciferase gene expression at 1 uM after 18 hrs relative to ICI182780; format: cell-based
T2 sequence (P03372 whole entry): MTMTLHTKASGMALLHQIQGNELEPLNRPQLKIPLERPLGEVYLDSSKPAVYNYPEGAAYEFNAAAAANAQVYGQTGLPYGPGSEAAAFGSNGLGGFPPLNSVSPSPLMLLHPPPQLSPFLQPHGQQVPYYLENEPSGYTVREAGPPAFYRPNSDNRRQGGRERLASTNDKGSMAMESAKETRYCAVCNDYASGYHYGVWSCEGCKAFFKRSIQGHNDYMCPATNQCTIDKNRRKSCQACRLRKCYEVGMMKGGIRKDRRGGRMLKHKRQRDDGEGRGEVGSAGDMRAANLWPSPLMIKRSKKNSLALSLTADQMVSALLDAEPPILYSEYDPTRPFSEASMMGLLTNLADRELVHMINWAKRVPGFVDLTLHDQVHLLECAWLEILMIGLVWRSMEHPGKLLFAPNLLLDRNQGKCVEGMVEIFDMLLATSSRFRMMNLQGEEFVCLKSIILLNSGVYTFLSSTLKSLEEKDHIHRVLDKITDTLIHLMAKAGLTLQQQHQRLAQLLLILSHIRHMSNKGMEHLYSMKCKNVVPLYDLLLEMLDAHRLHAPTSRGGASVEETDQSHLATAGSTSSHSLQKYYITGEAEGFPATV

Estrogen receptor [7] = target: T2, Estrogen receptor; assay: (§2) Partial agonist activity at human ERalpha receptor expressed in human MCF7:D5L cells co-expressing ERE assessed as increase of estradiol-induced luciferase gene expression at 1 uM after 18 hrs relative to estradiol; format: cell-based; conditions: 18 h, 1 µM
HT-22 [8] = assay: Neuroprotective activity in mouse HT22 cells assessed as protection against glutamate-induced oxytosis after 24 hrs by MTT assay; format: functional, cell-based; conditions: HT-22, 24 h
HT-22 [9] = assay: Neuroprotective activity in mouse HT22 cells assessed as protection against glutamate-induced oxytosis after 24 hrs by MTT assay relative to resveratrol; format: functional
[10] = Cytotoxicity against mouse HT22 cells assessed as cell viability at 1 uM after 3 days by LDH release assay relative to control; format: cell-based, HT-22; conditions: read-out: Activity
MCF7 = assay: Antiproliferative activity against human stradiol-stimulated MCF7 cells at 1 uM after 96 hrs by MTT assay; format: cell-based; conditions: mcf7, 96 h
[11] = target: Aryl hydrocarbon receptor (Mus musculus) (UniProt P30561); assay: Activity at AhR expressed in mouse H1L1.1c2 cells co-expressing XRE assessed as increase of benzo[b]fluoranthene-induced luciferase gene expression at 1 uM after 72 hrs
estrogen receptor [12] = assay: as §1; format: cell-based; conditions: Ishikawa cells, read-out: Activity
estrogen receptor alpha = target: T3, estrogen receptor alpha (Homo sapiens, UniProt P03372); assay: as §2; format: cell-based; conditions: read-out: Activity
T3 sequence (P03372 whole entry): T2 sequence (P03372 whole entry)

[13] = target: Aryl hydrocarbon receptor (Mus musculus) (UniProt P30561); assay: Activity at AhR expressed in mouse H1L1.1c2 cells co-expressing XRE assessed as induction luciferase gene expression at 1 uM after 72 hrs relative to benzo[b]fluoranthene
Ishikawa [14] = assay: Cytotoxicity against human Ishikawa cells at 1 uM by LDH release assay; format: cell-based
[15] = target: Aryl hydrocarbon receptor (Mus musculus) (UniProt P30561); assay: Activity at AhR expressed in mouse H1L1.1c2 cells co-expressing XRE assessed as induction luciferase gene expression at 10 nM after 72 hrs

T1 sequence (Q92731 whole entry): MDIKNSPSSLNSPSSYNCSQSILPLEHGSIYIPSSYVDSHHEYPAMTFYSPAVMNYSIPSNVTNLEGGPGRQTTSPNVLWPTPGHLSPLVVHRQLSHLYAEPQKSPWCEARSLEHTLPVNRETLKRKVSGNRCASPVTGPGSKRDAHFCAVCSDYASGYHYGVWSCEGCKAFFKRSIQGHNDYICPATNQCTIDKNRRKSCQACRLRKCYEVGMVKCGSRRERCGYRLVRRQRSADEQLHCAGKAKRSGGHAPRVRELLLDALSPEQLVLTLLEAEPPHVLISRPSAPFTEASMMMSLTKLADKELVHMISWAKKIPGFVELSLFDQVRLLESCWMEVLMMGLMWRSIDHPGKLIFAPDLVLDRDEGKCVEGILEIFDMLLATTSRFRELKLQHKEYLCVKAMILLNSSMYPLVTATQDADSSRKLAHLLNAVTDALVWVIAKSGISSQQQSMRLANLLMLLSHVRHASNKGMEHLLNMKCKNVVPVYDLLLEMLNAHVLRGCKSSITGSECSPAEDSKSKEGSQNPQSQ
Chain of Aryl hydrocarbon receptor (Mus musculus) (P30561 whole entry, looked up): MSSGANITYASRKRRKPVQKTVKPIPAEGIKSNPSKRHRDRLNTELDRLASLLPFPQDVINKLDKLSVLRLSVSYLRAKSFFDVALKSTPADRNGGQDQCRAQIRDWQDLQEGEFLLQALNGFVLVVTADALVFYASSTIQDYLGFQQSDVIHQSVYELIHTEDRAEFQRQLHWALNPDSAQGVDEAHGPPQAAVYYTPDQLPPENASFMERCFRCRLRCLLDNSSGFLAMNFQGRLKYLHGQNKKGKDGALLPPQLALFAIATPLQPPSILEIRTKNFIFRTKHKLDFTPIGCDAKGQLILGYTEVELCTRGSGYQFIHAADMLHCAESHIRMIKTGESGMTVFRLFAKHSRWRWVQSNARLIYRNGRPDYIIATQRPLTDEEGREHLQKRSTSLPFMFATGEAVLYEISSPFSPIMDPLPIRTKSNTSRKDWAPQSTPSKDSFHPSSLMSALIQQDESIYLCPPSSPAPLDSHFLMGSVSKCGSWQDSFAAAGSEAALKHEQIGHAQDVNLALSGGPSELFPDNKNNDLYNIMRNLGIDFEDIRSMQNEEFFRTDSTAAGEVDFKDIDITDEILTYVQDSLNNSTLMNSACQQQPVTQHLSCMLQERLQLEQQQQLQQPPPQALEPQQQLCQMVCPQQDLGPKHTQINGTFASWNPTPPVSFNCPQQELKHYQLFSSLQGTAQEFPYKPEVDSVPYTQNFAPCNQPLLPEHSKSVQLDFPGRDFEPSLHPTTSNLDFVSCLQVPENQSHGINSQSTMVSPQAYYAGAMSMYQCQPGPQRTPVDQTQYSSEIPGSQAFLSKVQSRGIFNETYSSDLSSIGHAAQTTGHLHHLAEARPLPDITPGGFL

| SMILES | Activity (Ishikawa [1]) | Activity [2] | Activity [3] | Activity (Estrogen receptor beta [4]) | Activity (Estrogen receptor beta [5]) | Activity (Estrogen receptor [6]) | Activity (Estrogen receptor [7]) | EC50 (HT-22 [8]) | Ratio EC50 (HT-22 [9]) | percent cytotoxicity (LDH release relative to control) at 72 h, 1 µM [10] | Activity (MCF7) | Activity [11] | activity at 72 h, 1 µM (estrogen receptor [12]) | activity at 18 h, 1 µM (estrogen receptor alpha) | Ratio [13] | activity at 18 h, 1 µM (Estrogen receptor beta [5]) | Activity (Ishikawa [14]) | Activity [15] |
| --- | --- | --- | --- | --- | --- | --- | --- | --- | --- | --- | --- | --- | --- | --- | --- | --- | --- | --- |
| CC(C)(C)c1cc(/C=C/c2cc(O)cc(O)c2)cc(C(C)(C)C)c1O | Non-toxic | Not Active | Not Active | Not Active | Not Active | Not Active | Not Active | 45 nM | 104 | -6.7% | Non-toxic | 1.5% | – | – | – | – | – | – |
| CCC(CC)c1cc(/C=C/C=C/c2cc(O)cc(O)c2)ccc1O | Non-toxic | Not Active | – | Not Active | Not Active | Not Active | – | 79 nM | 59 | -5% | – | 1.7% | 21% | 37% | – | – | – | – |
| CC(C)(C)c1cc(/C=C/c2cc(O)cc(O)c2)ccc1O | Non-toxic | Not Active | Not Active | Not Active | Not Active | Not Active | Not Active | 484 nM | 9.6 | -6% | – | 1.5% | – | – | – | – | – | – |
| CCC(CC)c1cc(/C=C/c2cc(O)cc(O)c2)cc(C(CC)CC)c1O | Non-toxic | Not Active | Not Active | Not Active | Not Active | Not Active | Not Active | 30 nM | 156 | -6.7% | Non-toxic | 3% | – | – | 1.9 | – | – | – |
| COc1c(C(C)(C)C)cc(/C=C/C=C/c2cc(O)cc(O)c2)cc1C(C)(C)C | – | – | – | – | – | – | – | 410 nM | 11 | – | – | – | – | – | – | – | – | – |
| CC(C)(C)c1cc(/C=C/C=C/c2cc(O)cc(O)c2)cc(C(C)(C)C)c1O | Non-toxic | Not Active | Not Active | Not Active | Not Active | Not Active | Not Active | 119 nM | 39 | -5.3% | – | 1.6% | – | – | – | – | – | – |
| CC(C)(C)c1cc(/C=C/c2cc(C(C)(C)C)c(O)c(C(C)(C)C)c2)cc(C(C)(C)C)c1O | Non-toxic | Not Active | Not Active | Not Active | Not Active | Not Active | Not Active | 399 nM | 12 | 1.3% | – | 1.4% | – | – | – | – | – | – |
| CC(C)(C)c1cc(/C=C/C=C/c2cc(O)cc(O)c2)ccc1O | Non-toxic | Not Active | Not Active | Not Active | – | Not Active | – | 91 nM | 51 | -8.7% | – | 1.6% | – | 34% | – | 18% | – | – |
| Oc1ccc(/C=C/c2cc(O)cc(O)c2)cc1 [RESVERATROL] | Non-toxic | Not Active | Not Active | – | – | – | Not Active | 4670 nM | – | 4% | – | 1.2% | – | – | – | – | – | – |
| CCC(CC)c1cc(/C=C/c2cc(O)cc(O)c2)ccc1O | Non-toxic | Not Active | – | Not Active | Not Active | Not Active | – | 432 nM | 11 | -1% | – | 1.7% | 38% | 65% | – | – | – | – |
| CCC(CC)c1cc(/C=C/C=C/c2cc(O)cc(O)c2)cc(C(CC)CC)c1O | Non-toxic | Not Active | Not Active | Not Active | Not Active | Not Active | Not Active | 12 nM | 389 | -6% | Non-toxic | 2.2% | – | – | – | – | – | – |
| COc1c(C(C)(C)C)cc(/C=C/c2cc(C(C)(C)C)c(O)c(C(C)(C)C)c2)cc1C(C)(C)C | – | – | – | – | – | – | – | > 10000 nM | <1 | – | – | – | – | – | – | – | – | – |
| COc1c(C(C)(C)C)cc(/C=C/c2cc(O)cc(O)c2)cc1C(C)(C)C | – | – | – | – | – | – | – | 621 nM | 7.5 | – | – | – | – | – | – | – | – | – |
| Oc1ccc(/C=C/C=C/c2cc(O)cc(O)c2)cc1 | – | – | – | – | – | Not Active | Not Active | 3310 nM | 1.4 | 8% | – | 1.7% | – | – | – | 66% | Toxic | – |
| c1ccc2c(c1)-c1cccc3c1c-2cc1ccccc13 [BENZO[B]FLUORANTHENE] | – | – | – | – | – | – | – | – | – | – | – | – | – | – | – | – | – | 13.1% |
| CC(C)(C)c1cc(/C=C/c2ccc(O)cc2)ccc1O | Non-toxic | Not Active | – | Not Active | – | Not Active | – | 1060 nM | 4.4 | -5.3% | – | 1.5% | 25% | 49% | – | 19% | – | – |
| COc1cc(O)cc(/C=C/c2cc(C(C)(C)C)c(O)c(C(C)(C)C)c2)c1 | – | – | – | – | – | – | – | 258 nM | 18 | – | – | – | – | – | – | – | – | – |
